The subject of one data set is Candida albicans. The data set is described as follows: Robotic MIC assay with asthma/COPD medicaments (Example 5). It counts as cell-based. The conditions noted are these: for effect on growth of C. albicans: at the given concentrations, data not shown; for influence on the MIC values of nystatin or amphotericin B in combination with OligoG CF5/20: ipratropium bromide and salbutamol at 0.01 mM and 1 mM, budesonide at 0.01 mM, formoterol at 0.5 mM. The protocol:
A robotic MIC Assay was performed as follows. OligoG CF-5/20 were dissolved in medium (Mueller-Hinton broth or M19 broth depending on experiment) to 1.25 times of the desired assay concentrations (2, 6 and 10%). The antifungal agents under test were dissolved in medium without OligoG CF-5/20 and in medium with OligoG CF-5/20 at a concentration of 1.25 times the highest desired assay concentrations. For experiments where the effect of adding different concentrations of Na^+ was investigated, NaCl was dissolved in medium to the desired concentrations (10, 30 and 50 mM).
Two-fold serial dilutions of antifungal agents were made in medium with different concentrations of OligoG CF-5/20, and the solutions were placed in four parallel wells in Nunc 384-well micro plates (30 μl per well in Nunc 242757 microplates). A group of 8 wells with no addition of antifungal agents for each OligoG CF-5/20 concentration was included on each microplate as growth reference. To each well in the 384-well assay plates was added 7.5 μl of medium inoculated with a frozen stock culture of Candida albicans (strain CCUG 39343).
The micro plates were placed in plastic bags and incubated without shaking at 34° C. The optical density at 600 nm in the microwells was measured after approximately 13, 18, 24 and 34 hours of incubation, and the relative growth yield in each well was calculated based on the growth in the reference groups.
The robotic assay described in Example 1 was employed in this Example. […] The concentration utilized for the different components were based on information from Manocha et al. (2006).
In this assay only Mueller-Hinton broth was used since this is the medium specified for standardized MIC assays (Jorgensen et al., 1999).

Data set [1] has as its system Aspergillus flavus CCUG 28296. The data set is described as follows: Robotic MIC assay, Aspergillus (Example 4). Format: cell-based. The conditions noted are these: Aspergillus flavus, CCUG23451 / CCUG28296, 48 h, Mueller-Hinton broth, read-out: Minimum Inhibitory Concentration (MIC). The protocol:
(§1) Aspergillus sp. was grown at 30° C. for 96 h on YM-agar. Spores and aerial mycelium was cut out from the agar, suspended in 1 ml YM-broth and dispersed with glass beads (1 mm) in a mini bead beater for 2 min. Glycerol was added to the suspension to 10% and frozen at −80° C.
(§2) Each batch of frozen stock culture was then characterized in separate growth experiments using Mueller-Hinton broth to determine the minimum amount of inoculum giving satisfactory growth after 48 h under the conditions relevant for the MIC assay. This inoculation procedure is used in order to reduce day to day variation in bioassays.
(§3) Robotic minimum inhibitory concentration (MIC) assay was performed as follows. OligoG CF-5/20 was dissolved in medium (Mueller-Hinton broth) to 1.25 times of the desired assay concentrations (2, 6 and 10%). […].
(§4) Two-fold serial dilutions of antifungal agents were made in medium with different concentrations of OligoG CF-5/20, and the solutions were placed in four parallel wells in Nunc 384-well micro plates (30 μl per well in Nunc 242757 microplates). A group of 8 wells with no addition of antifungal agents for each OligoG CF-5/20 concentration was included on each micro plate as growth reference. Each well in the 384-well assay plates was added 7.5 μl of the MH medium inoculated with frozen stock culture of the relevant strains.
(§5) The microplates were placed in plastic bags and incubated without shaking at 34° C. The optical density at 600 nm in the microwells was measured after approximately 24 and 48 hours of incubation. […]

Data set [2] relates to Aspergillus fumigatus CCUG 17460. The data set is described as follows: Robotic MIC assay, Aspergillus (Example 4). Format: cell-based. The conditions noted are these: Aspergillus fumigatus, CCUG17460, 48 h, Mueller-Hinton broth, read-out: Minimum Inhibitory Concentration (MIC). The procedure:
as §1, §2, §3, §4, §5

Data set [3] concerns Aspergillus niger CCUG 18919. The data set is described as follows: Robotic MIC assay, Aspergillus (Example 4). The conditions noted are these: Aspergillus niger, CCUG18919, 48 h, Mueller-Hinton broth, read-out: Minimum Inhibitory Concentration (MIC). It counts as cell-based. The procedure: as §1, §2, §3, §4, §5
Data set [4] concerns various Aspergillus species. The data set is described as follows: Robotic MIC assay, summary over species (Example 4). Format: cell-based. Particulars: Aspergillus species tested. The procedure:
as §1, §2, §3, §4, §5

The conditions of data set [5]: cited from earlier work.

Converted amounts (≈) assume the structure as drawn. Where two headings read alike, the source gives them in different places.

Turning to `CC(C)[N+]1(C)[C@@H]2CC[C@H]1C[C@@H](OC(=O)C(CO)c1ccccc1)C2.O.[Br-]` (stereo partly shown) [Ipratropium bromide, ipratropium bromide monohydrate], in the data set with Candida albicans, the “effect on growth of C. albicans” value is “did not affect growth” and the “influence on the MIC values of nystatin or amphotericin B in combination with OligoG CF5/20” value is “do not significantly influence”.
On to `C[C@@H](c1ncncc1F)[C@](O)(Cn1cncn1)c1ccc(F)cc1F` [Voriconazole, voriconazole], for which the MIC in data set [1] (A. flavus CCUG 23451, 0% OligoG) is 0.0625 µg/mL (≈ 0.179 µM); in data set [1] (A. flavus CCUG 23451, 2% OligoG), 0.0625 µg/mL (≈ 0.179 µM); in data set [1] (A. flavus CCUG 23451, 6% OligoG) it was below 0.0312 µg/mL; in data set [1] (A. flavus CCUG 23451, 10% OligoG), below 0.0312 µg/mL; in data set [2] (A. fumigatus CCUG 17460, 0% OligoG), 0.125 µg/mL (≈ 0.358 µM); in data set [2] (A. fumigatus CCUG 17460, 2% OligoG), 0.125 µg/mL (≈ 0.358 µM). The MIC in data set [2] (A. fumigatus CCUG 17460, 6% OligoG) is 0.0625 µg/mL (≈ 0.179 µM); in data set [2] (A. fumigatus CCUG 17460, 10% OligoG), 0.0312 µg/mL (≈ 0.0895 µM); in data set [3] (A. niger CCUG 18919, 0% OligoG), 0.25 µg/mL (≈ 0.716 µM); in data set [3] (A. niger CCUG 18919, 2% OligoG), 0.0625 µg/mL (≈ 0.179 µM); in data set [3] (A. niger CCUG 18919, 6% OligoG), below 0.0312 µg/mL; in data set [3] (A. niger CCUG 18919, 10% OligoG), below 0.0312 µg/mL. Further, the “effect of addition of OligoG CF-5/20 on MIC values” in data set [4] is recorded as “reduction in MIC values”.
For `CCCC1O[C@@H]2C[C@H]3[C@@H]4CCC5=CC(=O)C=C[C@]5(C)[C@H]4[C@@H](O)C[C@]3(C)[C@]2(C(=O)CO)O1` (stereo partly shown) [budesonide], the solubility in water result in data set [5] was “limited solubility in water”.
On to `CC(C)(C)NCC(O)c1ccc(O)c(CO)c1` (stereo not shown) [salbutamol], for which, in the data set on Candida albicans, the “effect on growth of C. albicans” value is given as “did not affect growth” and the “influence on the MIC values of nystatin or amphotericin B in combination with OligoG CF5/20” value was “do not significantly influence”. The solubility in water entry in data set [5] was “soluble in water”.
